In data set [1] the target is T1, Glucose-dependent insulinotropic receptor (Homo sapiens) (UniProt Q8TDV5).
T1 sequence (whole entry): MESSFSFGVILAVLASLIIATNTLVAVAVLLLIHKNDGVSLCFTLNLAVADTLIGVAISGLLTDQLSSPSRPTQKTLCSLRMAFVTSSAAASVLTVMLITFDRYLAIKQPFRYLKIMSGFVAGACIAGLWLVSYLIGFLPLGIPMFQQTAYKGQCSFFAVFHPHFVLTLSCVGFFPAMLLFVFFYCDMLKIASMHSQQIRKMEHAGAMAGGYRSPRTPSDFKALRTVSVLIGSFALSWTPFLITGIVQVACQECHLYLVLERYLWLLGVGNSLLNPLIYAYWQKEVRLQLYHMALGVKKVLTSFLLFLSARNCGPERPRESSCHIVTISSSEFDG
Put plainly: (§1) Agonist activity at human GPR119 expressed in HEK293 cells assessed as cAMP accumulation after 30 mins by fluorescence analysis. It is filed as functional, cell-based.

Data set [2] addresses T2, Glucose-dependent insulinotropic receptor (Mus musculus) (UniProt Q7TQP3).
T2 sequence (whole entry): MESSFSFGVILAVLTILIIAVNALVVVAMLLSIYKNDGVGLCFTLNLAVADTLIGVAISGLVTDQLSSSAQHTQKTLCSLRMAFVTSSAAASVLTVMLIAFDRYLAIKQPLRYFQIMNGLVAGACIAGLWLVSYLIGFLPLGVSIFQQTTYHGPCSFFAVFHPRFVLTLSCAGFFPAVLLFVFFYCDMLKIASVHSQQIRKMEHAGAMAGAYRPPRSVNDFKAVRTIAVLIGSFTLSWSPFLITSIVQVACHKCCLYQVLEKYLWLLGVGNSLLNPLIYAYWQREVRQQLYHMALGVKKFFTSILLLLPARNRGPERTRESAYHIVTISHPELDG
Put plainly: (§2) Agonist activity at mouse GPR119 expressed in HEK293 cells assessed as cAMP accumulation after 30 mins by fluorescence analysis. In kind it is functional, cell-based. In general terms: Cyclic AMP is a second messenger, typically raised through Gs and lowered through Gi signalling.

Data set [3] has as its system Mus musculus. In words: Decrease in blood glucose level in C57B1/6NCrl mouse at 3 mg/kg, po administered 30 mins prior to oral glucose challenge by glucose tolerance test relative to control. It is filed as functional.
Data set [4] can be described thus: AUC (0 to 6 hrs) in Sprague-Dawley rat plasma at 10 mg/kg, po. In kind it is ADME, organism-based. Further details: time < 6 hr, dose 10 mg/kg, route oral.
Data set [5] addresses T3, Glucose-dependent insulinotropic receptor (Homo sapiens, UniProt Q8TDV5).
T3 sequence (Q8TDV5 whole entry): T1 sequence (whole entry)
The description is as §1. In kind it is functional, cell-based.

In data set [6] the target is T4, Glucose-dependent insulinotropic receptor (Mus musculus, UniProt Q7TQP3).
T4 sequence (Q7TQP3 whole entry): T2 sequence (whole entry)
The data set is described as §2. In kind it is functional, cell-based.

The subject of data set [7] is Mus musculus. Put plainly: Decrease in blood glucose level in C57B1/6NCrl mouse at 3 mg/kg, po administered 30 mins prior to oral glucose challenge by glucose tolerance test. In kind it is functional, organism-based.
For data set [8], the system named is Plasma. In words: Fraction unbound in C57B1/6NCrl mouse plasma at 3 mg/kg, po after 1 hr. It is filed as ADME, organism-based. The settings on record: in vivo.
Data set [9] in a line: Solubility of compound at pH 7.4. It is filed as physicochemical. The settings on record: buffer.
Data set [10] concerns Mus musculus. Put plainly: Decrease in blood glucose level in C57B1/6NCrl mouse at 0.1 mg/kg, po administered 30 mins prior to oral glucose challenge by glucose tolerance test relative to control. In kind it is functional.
Data set [11] relates to Mus musculus. Put plainly: Decrease in blood glucose level in C57B1/6NCrl mouse drug administered 30 mins prior to oral glucose challenge by glucose tolerance test. It is filed as functional, organism-based.
In data set [12] the test system is Plasma. Put plainly: Plasma concentration in C57B1/6NCrl mouse at 0.1 mg/kg, po. Conditions: in vivo. In kind it is ADME, organism-based.
Data set [13] deals with Plasma. In words: Plasma concentration in C57B1/6NCrl mouse at 0.3 mg/kg, po. It is filed as ADME, organism-based. Conditions: in vivo.
In data set [14] the test system is Plasma. Put plainly: Plasma concentration in C57B1/6NCrl mouse at 1 mg/kg, po. It is filed as ADME, organism-based. The settings on record: in vivo.
Data set [15] has as its system Plasma. Put plainly: Plasma concentration in C57B1/6NCrl mouse at 3 mg/kg, po. The settings on record: in vivo. It is filed as ADME, organism-based.

In brackets after ≈: the same amount, converted by molar mass. Activity calls are given as the source filed them. No cut-off for these calls is given here.

Turning to `Cc1ncccc1Nc1ncnc(OC2C3COCC2CN(C(=O)OC(C)C)C3)c1C` (stereo in doubt; 21) [listing 1 of 2 here], in data set [1], the %max came to 78%.
Regarding `Cc1c(Nc2ccc(C#N)cc2Cl)ncnc1OC1C2COCC1CN(S(=O)(=O)C1CC1)C2` (stereo in doubt; 17) [listing 1 of 2 here], the values for the %max in data set [1] and in [2] were 56% and 53%, respectively.
A word on the inhibition in vivo: it is the share of the control response that was lost under treatment. A low value points to little suppression. One may read the AUC(0-t) as exposure summed from dosing to a finite time, without extrapolation to infinity. A high value points to high exposure. For orientation: EC50 means the concentration giving half of the maximal effect. The compound `COc1c(Nc2ccc(C#N)cc2F)ncnc1OC1C2COCC1CN(C(=O)OC1(C)CC1)C2` (configuration not stated) registered an inhibition in vivo at 3 mg/kg in the data set with Mus musculus [3] of 78%. The AUC(0-t) at 6 h in data set [4] worked out at 1.43 µM·h. Further, the figures for the %max in [1] and in [2] were 99% and 116%, respectively. In addition, the figures for the EC50 in data set [5] and in data set [6] were 5 nM and 47 nM, respectively.
Consider `Cc1ncccc1Nc1ncnc(OC2C3COCC2CN(C(=O)OC(C)C)C3)c1C` (stereo in doubt; 22), for which the EC50 in data set [5] is over 10000 nM.
Take `Cc1c(Nc2ccc(C#N)cc2Cl)ncnc1OC1CC2COCC(C1)N2C(=O)OC(C)(C)C` (stereo in doubt; 15) [listing 1 of 2 here]: the %max in [1] stood at 38%; in data set [2], 57%. Further, the result in the data set with Mus musculus [7] was inactive.
Consider `Cc1ncccc1Nc1ncnc(OC2C3COCC2CN(C(=O)OC(C)C)C3)c1C` (stereo in doubt; 21) [listing 2 of 2 here], for which the half-maximal effective concentration (EC50) in data set [5] was determined as 65 nM.
One may read the solubility as the concentration that dissolves in the medium under given conditions. Lower therefore signals a poorly soluble substance. For `Cc1c(Nc2ccc(S(C)(=O)=O)cc2F)ncnc1OC1CC2COCC(C1)N2C(=O)OC1(C)CC1` (configuration not stated), at 3 mg/kg the inhibition in vivo in the data set with Mus musculus [3] was 84%. Also, in the data set on Plasma [8], the “Cp(f)” value came out at 100 nM. In addition, the solubility in data set [9] was 3.4 µM (≈ 1.77 µg/mL). In addition, the AUC(0-t) at 6 h in data set [4] came to 2.4 µM·h. Moreover, the figures for the %max in data set [1] and in data set [2] were 87% and 79%, respectively. For the same compound, the concentration for a half-maximal effect (EC50) in data set [5] stood at 70 nM; in data set [6] it was 511 nM.
Consider `Cc1c(Nc2ccc(S(C)(=O)=O)cc2Cl)ncnc1OC1CC2COCC(C1)N2C(=O)OC(C)(C)C` (configuration not stated), for which the %max in data set [1] is 49%; in data set [2], 78%. For the same compound, the EC50 in data set [5] was 44 nM; in [6], 190 nM. Also, the outcome with Mus musculus [7] was Active.
Take `Cc1c(Nc2ccc(C#N)cc2Cl)ncnc1OC1C2COCC1CN(S(=O)(=O)C1CC1)C2` (stereo in doubt; 18) [listing 1 of 2 here]: in data set [1], the %max was determined as 52%.
`Cc1c(Nc2ccc(C#N)cc2Cl)ncnc1OC1CC2COCC(C1)N2C(=O)OC(C)(C)C` (stereo in doubt; 15) [listing 2 of 2 here]: the values for the EC50 in data set [5] and in data set [6] were 17 nM and 100 nM, respectively.
Consider `Cc1c(Nc2ccc(C#N)cc2Cl)ncnc1OC1C2COCC1CN(C(=O)OC(C)(C)C)C2` (stereo in doubt; 19) [listing 1 of 2 here], for which the values for the %max in data set [1] and in [2] were 65% and 110%, respectively.
Compound `Cc1c(Oc2ccc(C#N)cc2Cl)ncnc1OC1C2COCC1CN(C(=O)OC1(C)CC1)C2` (configuration not stated) registered an inhibition in vivo at 3 mg/kg in the data set on Mus musculus [3] of 75%. Further, the AUC(0-t) at 6 h in [4] came to 1.49 µM·h. In addition, the figures for the %max in data set [1] and in data set [2] were 78% and 143%, respectively. For the same compound, the EC50 in data set [5] worked out at 16 nM; in data set [6], 128 nM.
Take `Cc1c(Nc2ccc(C#N)cc2Cl)ncnc1OC1CC2COCC(C1)N2C(=O)OC(C)(C)C` (stereo in doubt; 14) [listing 1 of 2 here]: the EC50 is 114 nM in [5] and 280 nM in [6].
As to `COc1c(Nc2ccc(C#N)cc2Cl)ncnc1OC1C2COCC1CN(C(=O)OC1(C)CC1)C2` (configuration not stated), the inhibition in vivo at 3 mg/kg in the data set on Mus musculus [3] stood at 78%. This compound gave an inhibition in vivo at 0.1 mg/kg in the data set on Mus musculus [10] of 40%. The solubility in data set [9] was determined as 30 µM (≈ 15 µg/mL). Besides, the AUC(0-t) at 6 h in data set [4] came to 8.23 µM·h. Also, the inhibition entry in the data set on Mus musculus [11] was “Dose-dependent effect”. The concentration with Plasma [12] was 20 nM; in the data set on Plasma [13], 90 nM; in the data set with Plasma [14], 220 nM; in the data set with Plasma [15], 350 nM. The %max amounted to 88% in [1] and 99% in data set [2]. In addition, the EC50 worked out at 7 nM in data set [5] and 43 nM in [6].
As for `Cc1c(Nc2ccc(C#N)cc2Cl)ncnc1OC1C2COCC1CN(C(=O)OC(C)(C)C)C2` (stereo in doubt; 20) [listing 1 of 2 here], the concentration for a half-maximal effect (EC50) in data set [5] worked out at 20 nM; in data set [6] it was 140 nM.
In the case of `Cc1c(Nc2ccc(C#N)cc2Cl)ncnc1OC1CC2COCC(C1)N2S(=O)(=O)C1CC1` (configuration not stated), the values for the %max in data set [1] and in data set [2] were 64% and 100%, respectively. The EC50 came to 268 nM in data set [5] and 1600 nM in [6].
Regarding `Cc1c(Nc2ccc(C#N)cc2Cl)ncnc1OC1C2COCC1CN(C(=O)OC(C)(C)C)C2` (stereo in doubt; 19) [listing 2 of 2 here], the EC50 in data set [5] amounted to 7 nM; in [6], 28 nM.
In the data set with Mus musculus [3], `CC1(OC(=O)N2CC3COCC(C2)C3Oc2cc(Nc3ccc(C#N)cc3Cl)ncn2)CC1` (configuration not stated) displayed an inhibition in vivo at 3 mg/kg of 78%. The AUC(0-t) at 6 h in data set [4] was 1.19 µM·h. The %max in data set [1] stood at 88%; in data set [2], 105%. For the same compound, the EC50 in data set [5] amounted to 25 nM; in [6], 254 nM.
Take `Cc1c(Nc2ccc(C#N)cc2Cl)ncnc1OC1C2COCC1CN(C(=O)OC1(C)CC1)C2` (configuration not stated): the inhibition in vivo at 3 mg/kg with Mus musculus [3] stood at 79%. Further, in the data set with Plasma [8], the “Cp(f)” value is 3 nM. The solubility in data set [9] was determined as 6 µM (≈ 2.9 µg/mL). In data set [4], this compound came in with an AUC(0-t) at 6 h of 4.98 µM·h. For the same compound, the %max in data set [1] amounted to 74%; in [2], 102%. The EC50 amounted to 4 nM in data set [5] and 33 nM in data set [6].
For the compound `Cc1c(Nc2ccc(C#N)cc2Cl)ncnc1OC1CC2COCC(C1)N2C(=O)OC(C)(C)C` (stereo in doubt; 14) [listing 2 of 2 here], the values for the %max in [1] and in data set [2] were 54% and 34%, respectively.
As to `Cc1c(Nc2ccc(C#N)cc2Cl)ncnc1OC1C2COCC1CN(S(=O)(=O)C1CC1)C2` (stereo in doubt; 17) [listing 2 of 2 here], the EC50 in [5] was 51 nM; in data set [6], 844 nM.
On to `Cc1c(Nc2ccc(C#N)cc2Cl)ncnc1OC1C2COCC1CN(S(=O)(=O)C1CC1)C2` (stereo in doubt; 18) [listing 2 of 2 here], for which the EC50 in [5] amounted to 1210 nM.
Regarding `Cc1c(Nc2ccc(C#N)cc2Cl)ncnc1OC1C2COCC1CN(C(=O)OC(C)(C)C)C2` (stereo in doubt; 20) [listing 2 of 2 here], the %max in data set [1] was 83%; in data set [2] it was 69%.

For the origin of these results see ChEMBL document CHEMBL3627686, “Discovery of the oxazabicyclo[3.3.1]nonane derivatives as potent and orally active GPR119 agonists” (Bioorg Med Chem Lett, 2015).
